One may read the half-life as the time needed for the level to fall by half in the phase considered. By Cmax is commonly meant the peak of the concentration-time curve.

We go through one compound from ChEMBL document CHEMBL5113403, “Design, synthesis, and biological evaluation of novel pyrazolo [3,4-d]pyrimidine derivatives as potent PLK4 inhibitors for the treatment of TRIM37-amplified breast cancer” (Eur J Med Chem, 2022).

The test system of series [1] is MCF7. Description: Induction of cell cycle arrest in human MCF7 cells assessed as greater G1 phase cells at 2.5 uM measured after 48 hrs by flow cytometry analysis (reference value: 0.78 %). Type of series: functional. For orientation: A flow cytometer gives signals particle by particle.
In series [2] the test system is MCF7. In words: Induction of apoptosis in human MCF7 cells assessed as early apoptotic cells at 0.25 uM incubated for 48 hrs by Annexin-V-FITC/PI staining based flow cytometric analysis (reference value: 2.83 %). Type of series: functional.
Series [3] has as its system MCF7. Description: Induction of cell cycle arrest in human MCF7 cells assessed as less G1 phase cells at 0.10 uM measured after 48 hrs by flow cytometry analysis (reference value: 0.44 %). Type of series: functional. Particulars: dose 0.1 µM.
The test system of series [4] is MCF7. Description: Induction of apoptosis in human MCF7 cells assessed as necrotic cells at 2.5 uM incubated for 48 hrs by Annexin-V-FITC/PI staining based flow cytometric analysis (reference value: 0.18 %). Type of series: functional.
A short description of series [5]: Metabolic stability in human liver microsomes assessed as intrinsic clearance at 100 uM measured upto 60 mins in the presence of NADPH by LC-MS/MS analysis. The class given is ADME, Microsome. The conditions noted are these: 1 h.
A short description of series [6]: Half-life in Sprague-Dawley rat at 3 mg/kg, iv by LC-MS/MS analysis. The class given is ADME, organism-based. Particulars: in vivo.
For series [7], the system named is MCF7. In words: Induction of apoptosis in human MCF7 cells assessed as necrotic cells at 0.25 uM incubated for 48 hrs by Annexin-V-FITC/PI staining based flow cytometric analysis (reference value: 0.18 %). Type of series: functional.
A short description of series [8]: Metabolic stability in human liver microsomes assessed as compound remaining at 100 uM measured after 60 mins by LC-MS/MS analysis. The conditions noted are these: read-out: Stability. Type of series: ADME, Microsome. For orientation: Liver microsomes are a subcellular fraction often used to study metabolism.
A short description of series [9]: Cmax in Sprague-Dawley rat at 10 mg/kg, po by LC-MS/MS analysis. Particulars: in vivo. Type of series: ADME, organism-based. Set-up: dose 10 mg/kg, route po.
Series [10] deals with MCF7. Description: Induction of cell cycle arrest in human MCF7 cells assessed as decrease in G1 phase cells at 1 uM measured after 48 hrs by flow cytometry analysis (reference value: 56.9 %). The class given is functional. More on the design: scale not given: the % may be the effect or the level left.
The test system of series [11] is MCF7. Description: Induction of apoptosis in human MCF7 cells assessed as total apoptotic cells at 0.50 uM incubated for 48 hrs by Annexin-V-FITC/PI staining based flow cytometric analysis relative to control. Particulars: dose 0.5 µM. The class given is functional.
In series [12] the test system is MCF7. In words: Induction of cell cycle arrest in human MCF7 cells assessed as decrease in G1 phase cells at 2.5 uM measured after 48 hrs by flow cytometry analysis (reference value: 56.9 %). Type of series: functional. More on the design: scale not given: the % may be the effect or the level left.
For series [13], the system named is MCF7. In words: Induction of apoptosis in human MCF7 cells assessed as early apoptotic cells at 0.10 uM incubated for 48 hrs by Annexin-V-FITC/PI staining based flow cytometric analysis (reference value: 2.83 %). Type of series: functional. The conditions noted are these: dose 0.1 µM.
For series [14], the system named is MCF7. In words: Induction of cell cycle arrest in human MCF7 cells assessed as less G1 phase cells at 0.50 uM measured after 48 hrs by flow cytometry analysis (reference value: 0.44 %). Type of series: functional. The conditions noted are these: dose 0.5 µM.

Consider `Cc1cc(Nc2nc(NCc3ccc(F)cc3F)nc3c2cnn3C2CCOCC2)n[nH]1`, for which the Activity turned out to be 0.87% in series [1]; 24.8% in series [2]; 0.37% in [3]; 0.98% in series [4]; 1.97% in series [7]; 21.5% in series [10]. Besides, the Activity in [11] stood at 67.28%; in series [12], 9.8%; in [13] it was 19.3%; in series [14] it was 0.71%. Moreover, the CLint in series [5] came to 46.8 µL/min/mg. This compound showed a half-life in series [6] of 1.05 h. The remaining at 1 h, 100 µM in series [8] was found to be 106%. Besides, the concentration in series [9] peaked (Cmax) at 81.1 ng/mL.
